# Laboratory results reported in paper PMC8160934, “Different Biological Activities of Histidine-Rich Peptides Are Favored by Variations in Their Design” (Toxins, 2021).
# Where “and” joins values, the source holds several entries; their conditions need not be identical. Equal entries are not always repeated. Where a SMILES comes first, the peptide text is derived from it.
# Assays:
# HCT116 cells = assay: Luciferase protein transduction; format: cell-based, human; settings: HCT116, 2 µg recombinant luciferase with 10-32 µg peptide, 3 h in serum-free medium, mean of duplicates; result in words
# Procedure: To perform a rapid screening of the protein transduction activities of the two series of peptides, we selected to deliver the luciferase protein from Photinus pyralis, which has a molecular weight (MW) of 62 kDa and an isoelectric point (pI) of 6.3. Indeed, the measurement of the activity of this enzyme is fast and very sensitive. […] Increasing amounts of peptides were added to a fixed amount of luciferase, and after 3 h of incubation with the human colon cancer cells HCT116, enzymatic activity was measured.
# Figure 1 Transduction of the luciferase protein. HCT116 cells in 48-well plates were treated with 2 µg of recombinant luciferase (Rec. Luc) (per duplicate) in the presence or absence of LAH4 peptides (LAH4-Ln series in (A) and LAH4-An series in (B)). After 3 h of incubation in serum-free medium, cells were washed once with 1 mL/well of phosphate buffer saline (PBS), lysed, and the luciferase activity was determined. […] For each peptide, four conditions were tested: 10, 16, 24 and 32 µg of peptide/2 µg recombinant luciferase, except for LAH4 (16, 24 and 32 µg). Non-complexed recombinant luciferase was used as the control (black bar). The hydrophilic angles are shown in italics. […] It is uncertain whether it counts as a property result. The luciferase activities are shown only as bars, with no printed numbers, and are left out.
# Protein complexes were generated using increasing peptide/protein w/w ratios.
# Then, 0.25 mL of serum-free medium containing the peptide/protein complexes was transferred into each well. After an incubation time of 3 h at 37 °C the medium was removed, cells were washed once with 1 mL/well of PBS, and then 100 μL of lysis buffer was added per well. Luciferase activity and protein content were measured as described above.
# U87 cells = assay: DNA transfection with p-Luc plasmid, luciferase expression; settings: 1.5 µg pDNA with 7.5-25 µg peptide, 2 h 30 min, read one day post-transfection, mean of duplicates, result in words
# Procedure: In vitro cell transfection experiments were performed using the plasmid p-Luc (7.6 kb), which is an expression plasmid encoding the firefly luciferase gene under the control of the human cytomegalovirus (CMV) immediate–early promoter. In total, 55,000 U87 cells were plated in 48-well plates one day before the experiment was performed. For transfection, 0.25 mL of serum-free culture medium containing the DNA complexes was deposited into each well of the duplicate. After incubation for approximately 2 h 30 min at 37 °C the medium was replaced with a fresh one containing serum. Luciferase activity was measured as described below in the cell lysate one day after transfection.
# Transfection complexes were prepared as follows: for a duplicate, 1.5 μg of plasmid DNA and the desired amount of peptide were each diluted into 25 μL of acetate buffer pH 5 and gently mixed. DNA complexes were generated using increasing peptide/DNA w/w ratios. After 20 min of incubation at room temperature, the mixture was diluted with culture medium to obtain a final volume of 0.5 mL.
# For luciferase activity, cells were harvested in 100 μL of lysis buffer (8 mM MgCl2, 1 mM DTT, 1 mM EDTA, 0.6% Triton X-100, 15% glycerol, and 25 mM Tris-phosphate buffer pH 7.8). The cell lysate was then transferred into Eppendorf tubes and centrifuged for 7 min at 10,000× g to pellet debris. Luciferase light units were measured in a 96-well plate format with a Centro LB luminometer (Berthold) from an aliquot of the supernatant (2 μL) with 1 s integration after automatic injection of 50 μL assay buffer (lysis buffer without Triton X-100 but supplemented with 2 mM ATP) and 50 μL of a luciferin solution (167 μM in water). Luciferase background was subtracted from each value and the protein content of the transfected cells was measured by Bradford dye-binding using the BioRad protein assay (Bio-Rad). The transfection efficiency was expressed as light units/s/mg protein (light units measured over a period of 1 s, and the values were then normalized after measurement of the amount of protein present in each well). The reported values are the mean of duplicates. Error bars represent the standard deviation of the mean.
# glioblastoma U87 cells. Increasing amounts of peptide were mixed with a constant amount of reporter
# plasmid (1.5 µg per duplicate of pDNA) and the complexes were incubated for 2h 30min with the
# cells plated in 48-well plates. The transfection medium was then removed and replaced with fresh
# culture medium supplemented with 10% serum. Luciferase activity was measured one day post-
# transfection. The transfection efficiency is expressed as light units/s/mg protein and the reported
# values are the mean of duplicates. Error bars represent the standard deviation of the mean.
# [1] = system: E. coli bacteria (ATCC 25922); assay: Broth microdilution antibacterial assay (MIC) in Mueller–Hinton broth, pH 5; format: cell-based; settings: for MIC: E. coli ATCC 25922, broth microdilution, Mueller–Hinton broth pH 5, 37 °C, 12 h, OD600, concentration at which bacterial growth reaches a minimum (at least 80% inhibited), average of two experiments, each in triplicate; for MIC50: E. coli, Mueller–Hinton broth pH 5, x50 from Origin fits of the growth curves of Figure 3 (concentration range 100 µM to 0.52 µM), fit error given, * error estimated in the range of the 1.5-fold dilution steps
# Procedure: Therefore, the antibacterial properties of both series of peptides were analyzed in Mueller–Hinton (MH) broth at pH 5 by determining the minimal inhibitory concentrations (MICs).
# Figure 3 Bacterial growth as a function of peptide concentration for the LAH4-Ln (A) and the LAH4-An series (B). The average of two experimental data sets (each data point derived from triplicates under the same experiment conditions) covering the concentration range 100 µM to 0.52 µM are shown by the relative bacterial growth when compared to bacteria in the absence of peptide (=100%). To guide the eye, the data have been fitted with the function ymin + (ymax − ymin)/(1 + (x/xo)^p)^s using the OriginPro software. […] The assay was performed in Mueller–Hinton broth, pH 5.
# A broth microdilution assay was used to determine the minimal inhibitory concentration (MIC). A peptide aliquot of 1 mg was first solubilized in 50% ethanol (10 mM) then diluted in H2O to get a 300 μM peptide stock solution.
# For all the activity tests, E. coli bacteria (ATCC® 25922^TM, Thermo Fisher Scientific, Courtaboeuf, France) were used. Briefly, some colonies from E. coli spread on gelose were resuspended in Mueller–Hinton broth, pH 7.4. After incubation at 37 °C for about 6 h this preculture was diluted to OD550nm = 0.2 in MH at pH5 and allowed to grow to reach the exponential phase (OD550nm = 1–2). After two-step dilution in MH pH5, the working bacteria suspension corresponding to 1.10^5–2.10^5 colony-forming units (CFU)/mL was obtained.
# The antimicrobial testing was carried out in 96-well microplates (sterile polystyrene untreated with F-bottom, Thermo Scientific Nunc A/S, Roskilde, Denmark). The first column of the plate contains the highest final concentration (Cf) of peptide to test (two experiments were done: the first one starting at Cf 100 μM and a second one starting at 30 μM). All samples were added to the first column of the plate and subsequently spread onto the plate by a 1.5-fold dilution series in 10 steps. The last columns correspond to the positive and negative control conditions, respectively. Finally, the bacterial working suspension was distributed (50 μL at 1.10^5–2.10^5 CFU/mL in MH1X at pH 5) to each well except for the negative control (MH1X at pH5). The final volume was 100 μL/well and the range of peptide concentrations tested was from 100 μM to 1.73 μM for the first experiment and from 30 μM to 0.52 μM for the second experiment. The microplates were incubated at 37 °C for 12 h before bacterial growth was assessed by measuring the OD600. The initial bacterial density for each experiment was checked by spreading 100 μL of the working bacterial suspension, diluted 1/100 and 1/500 in MH1X, pH 5 on MH agar plates. After overnight incubation at 37 °C, the CFU were counted and the CFU/mL were determined. The percentage of bacterial growth compared to the positive control allows one to determine the MIC. The MIC values represent the average of the lowest tested peptide concentration (from both experiments) where most (at least 80%) of the bacterial growth is inhibited.
Compound,"luciferase protein transduction efficiency (luciferase activity, light units/s/mg protein) (HCT116 cells)",DNA transfection activity (luciferase activity) (U87 cells),MIC [1],MIC50 [1] [µM]
CC(C)C[C@H](NC(=O)[C@H](C)NC(=O)[C@H](CCCCN)NC(=O)[C@@H](N)CCCCN)C(=O)N[C@@H](CC(C)C)C(=O)N[C@@H](C)C(=O)N[C@@H](Cc1c[nH]cn1)C(=O)N[C@@H](C)C(=O)N[C@@H](CC(C)C)C(=O)N[C@@H](Cc1c[nH]cn1)C(=O)N[C@@H](CC(C)C)C(=O)N[C@@H](CC(C)C)C(=O)N[C@@H](C)C(=O)N[C@@H](CC(C)C)C(=O)N[C@@H](CC(C)C)C(=O)N[C@@H](C)C(=O)N[C@@H](CC(C)C)C(=O)N[C@@H](Cc1c[nH]cn1)C(=O)N[C@@H](CC(C)C)C(=O)N[C@@H](C)C(=O)N[C@@H](Cc1c[nH]cn1)C(=O)N[C@@H](C)C(=O)N[C@@H](CC(C)C)C(=O)N[C@@H](CCCCN)C(=O)N[C@@H](CCCCN)C(=O)N[C@@H](C)C(N)=O [LAH4-L1] (H-KKALLAHALHLLALLALHLAHALKKA-NH2),among the least efficient,highest activity,20 µM and 17 µM,8.6
"H-KKALLLAALHHLLALAHHLAALLKKA-NH2 [LAH4-A3, isomer of LAH4, LAH4-An series]",–,–,–,7.5
"H-KKALLALALHHLALLALHLAHALKKA-NH2 [LAH4-L2, isomer of LAH4, LAH4-Ln series]",the most efficient peptides,–,–,4.7
"H-KKALLHALLAALLAHLHALLAHLKKA-NH2 [LAH4-A6, isomer of LAH4, LAH4-An series]",–,high levels of activity,–,2.9
CC(C)C[C@H](NC(=O)[C@H](C)NC(=O)[C@H](Cc1c[nH]cn1)NC(=O)[C@H](C)NC(=O)[C@H](CC(C)C)NC(=O)[C@H](CC(C)C)NC(=O)[C@H](C)NC(=O)[C@H](CCCCN)NC(=O)[C@@H](N)CCCCN)C(=O)N[C@@H](C)C(=O)N[C@@H](Cc1c[nH]cn1)C(=O)N[C@@H](CC(C)C)C(=O)N[C@@H](C)C(=O)N[C@@H](CC(C)C)C(=O)N[C@@H](CC(C)C)C(=O)N[C@@H](C)C(=O)N[C@@H](CC(C)C)C(=O)N[C@@H](Cc1c[nH]cn1)C(=O)N[C@@H](CC(C)C)C(=O)N[C@@H](C)C(=O)N[C@@H](CC(C)C)C(=O)N[C@@H](Cc1c[nH]cn1)C(=O)N[C@@H](CC(C)C)C(=O)N[C@@H](CCCCN)C(=O)N[C@@H](CCCCN)C(=O)N[C@@H](C)C(N)=O [LAH4-L0] (H-KKALLAHALAHLALLALHLALHLKKA-NH2),–,–,6 µM,3.1
"H-KKALLALALHHLALLAHHLALALKKA-NH2 [LAH4-L3, isomer of LAH4, LAH4-Ln series]",–,–,–,1.4
CC(C)C[C@H](NC(=O)[C@H](C)NC(=O)[C@H](C)NC(=O)[C@H](CC(C)C)NC(=O)[C@H](CC(C)C)NC(=O)[C@H](CC(C)C)NC(=O)[C@H](C)NC(=O)[C@H](CC(C)C)NC(=O)[C@H](Cc1c[nH]cn1)NC(=O)[C@H](CC(C)C)NC(=O)[C@H](CC(C)C)NC(=O)[C@H](C)NC(=O)[C@H](CCCCN)NC(=O)[C@@H](N)CCCCN)C(=O)N[C@@H](Cc1c[nH]cn1)C(=O)N[C@@H](C)C(=O)N[C@@H](Cc1c[nH]cn1)C(=O)N[C@@H](CC(C)C)C(=O)N[C@@H](C)C(=O)N[C@@H](C)C(=O)N[C@@H](CC(C)C)C(=O)N[C@@H](Cc1c[nH]cn1)C(=O)N[C@@H](CC(C)C)C(=O)N[C@@H](CCCCN)C(=O)N[C@@H](CCCCN)C(=O)N[C@@H](C)C(N)=O [LAH4-L6] (H-KKALLHLALLLAALHAHLAALHLKKA-NH2),–,–,below 2 µM,0.9
"H-KKALLLAALHHLAALALHLAHLLKKA-NH2 [LAH4-A2, isomer of LAH4, LAH4-An series]",the most efficient peptides,–,–,5
"H-KKALLHALLAHLAALLHALLAHLKKA-NH2 [LAH4-A5, isomer of LAH4, LAH4-An series]",the most efficient peptides,high levels of activity,–,5.3
CC(C)C[C@H](NC(=O)[C@H](C)NC(=O)[C@H](CC(C)C)NC(=O)[C@H](Cc1c[nH]cn1)NC(=O)[C@H](Cc1c[nH]cn1)NC(=O)[C@H](C)NC(=O)[C@H](CC(C)C)NC(=O)[C@H](CC(C)C)NC(=O)[C@H](C)NC(=O)[C@H](C)NC(=O)[C@H](Cc1c[nH]cn1)NC(=O)[C@H](CC(C)C)NC(=O)[C@H](CC(C)C)NC(=O)[C@H](C)NC(=O)[C@H](CC(C)C)NC(=O)[C@H](Cc1c[nH]cn1)NC(=O)[C@H](CC(C)C)NC(=O)[C@H](CC(C)C)NC(=O)[C@H](C)NC(=O)[C@H](CCCCN)NC(=O)[C@@H](N)CCCCN)C(=O)N[C@@H](C)C(=O)N[C@@H](CC(C)C)C(=O)N[C@@H](CCCCN)C(=O)N[C@@H](CCCCN)C(=O)N[C@@H](C)C(N)=O [LAH4-L4] (H-KKALLHLALLHAALLAHHLALALKKA-NH2),–,–,–,0.8
CC(C)C[C@H](NC(=O)[C@H](C)NC(=O)[C@H](C)NC(=O)[C@H](Cc1c[nH]cn1)NC(=O)[C@H](CC(C)C)NC(=O)[C@H](CC(C)C)NC(=O)[C@H](C)NC(=O)[C@H](CC(C)C)NC(=O)[C@H](Cc1c[nH]cn1)NC(=O)[C@H](CC(C)C)NC(=O)[C@H](CC(C)C)NC(=O)[C@H](C)NC(=O)[C@H](CCCCN)NC(=O)[C@@H](N)CCCCN)C(=O)N[C@@H](CC(C)C)C(=O)N[C@@H](C)C(=O)N[C@@H](Cc1c[nH]cn1)C(=O)N[C@@H](CC(C)C)C(=O)N[C@@H](C)C(=O)N[C@@H](C)C(=O)N[C@@H](CC(C)C)C(=O)N[C@@H](Cc1c[nH]cn1)C(=O)N[C@@H](CC(C)C)C(=O)N[C@@H](CCCCN)C(=O)N[C@@H](CCCCN)C(=O)N[C@@H](C)C(N)=O [LAH4-L5] (H-KKALLHLALLHAALLAHLAALHLKKA-NH2),the most efficient peptides,–,below 2 µM,1.2
